Experimental data as given in publication PMC12040169 (PLOS Biology, 2025).

Assay: in vitro
Conditions: human, hela cells

CN(C)CCN(C)c1cc(C(F)(F)F)nc(NCc2ccc(Cl)cc2)n1 [CBK009668]
viability at 28.5 h, 10 µM (% viability): 93%

FC(F)(F)C1CN(C2CCCCC2)C(=S)S1 (stereo not shown) [CBK009719]
viability at 28.5 h, 10 µM (% viability): 84.2%

COc1ccc(C[C@@]23CCC(=O)C[C@@H]2N(C)CC3)cc1 [CBK009720]
viability at 28.5 h, 10 µM (% viability): 102%

O=c1[nH]c2cc(NCCO)c([N+](=O)[O-])cc2[nH]1 [CBK009794]
viability at 28.5 h, 10 µM (% viability): 93.2%

Cc1nc(-c2cc(Cl)c(Cl)s2)cs1 [CBK009801]
viability at 28.5 h, 10 µM (% viability): 84.2%

CC/C(=N\C(N)=O)c1ccccc1 [CBK009865]
viability at 28.5 h, 10 µM (% viability): 82.9%

CC(C)Oc1cccc2cccc(C(O)CN(C)C)c12 (stereo not shown) [CBK009892]
viability at 28.5 h, 10 µM (% viability): 98.5%

O=C1CC2(CCCCC2)C(C(=O)O)N1 (stereo not shown) [CBK009895]
viability at 28.5 h, 10 µM (% viability): 114%

CC1(C)C(=O)N2CCN=C2c2ccccc21 [CBK009903]
viability at 28.5 h, 10 µM (% viability): 78.6%

COC(=O)c1ccc2oc(-c3cc(C(O)CNC(C)(C)C)ccc3OC(C)C)cc(=O)c2c1 (stereo not shown) [CBK009944C]
viability at 28.5 h, 10 µM (% viability): 85%

O=C(c1ccccc1)C1(CO)COCc2nccn21 (stereo not shown) [CBK009980]
viability at 28.5 h, 10 µM (% viability): 88.7%

CN(C)c1cc(=O)c2cc3c(cc2o1)CCC3 [CBK010017]
viability at 28.5 h, 10 µM (% viability): 67.2%

CCOCCN(CCOCC)c1nnc2ccc(Cl)nn12 [CBK010024]
viability at 28.5 h, 10 µM (% viability): 99.6%

OC(Cn1ccnc1)C1CCCCC1 (stereo not shown) [CBK010092]
viability at 28.5 h, 10 µM (% viability): 78.3%

CN1C(/C=N/O)=C(O)c2ccccc2S1(=O)=O [CBK010098]
viability at 28.5 h, 10 µM (% viability): 94.1%

O=C1NC(Nc2ccc(SCCN3CCOCC3)cc2)c2ccccc21 (stereo not shown) [CBK010123]
viability at 28.5 h, 10 µM (% viability): 93.6%

COc1cc(C(=O)c2ccc(Cl)cc2)cc(Br)c1OCCN1CCOCC1 [CBK010131C]
viability at 28.5 h, 10 µM (% viability): 96.5%

CCNC(=O)C1=C(C(=O)NCC)N2C(=NC(C)(C)c3ccccc32)S1 [CBK010172]
viability at 28.5 h, 10 µM (% viability): 102%

CCCCC1(COC(C)=O)OC(=O)Nc2ccc(Br)cc21 (stereo not shown) [CBK010195]
viability at 28.5 h, 10 µM (% viability): 91.1%

COc1cc2c(cc1S(N)(=O)=O)C(=O)CCC2 [CBK010234]
viability at 28.5 h, 10 µM (% viability): 92.2%

Cn1c(SCCN2CCOCC2)nnc1-c1cccs1 [CBK010243]
viability at 28.5 h, 10 µM (% viability): 89.3%

CCCN1CCN(c2ncc(CNS(=O)(=O)c3ccc(Cl)cc3)cn2)CC1 [CBK010261]
viability at 28.5 h, 10 µM (% viability): 101%

O=S1(=O)CCCN1c1ccc2[nH]ncc2c1 [CBK010263]
viability at 28.5 h, 10 µM (% viability): 102%

CCOC(=O)N1COC[C@@H]1C(=O)O [CBK010379]
viability at 28.5 h, 10 µM (% viability): 81.5%

CC(=O)NC[C@H]1CN(c2ccc(C#N)c(C)c2)C(=O)O1 [CBK010393]
viability at 28.5 h, 10 µM (% viability): 107%

CCN1CCC2(CC1)Nc1cc(Cl)c(S(N)(=O)=O)cc1S(=O)(=O)N2 [CBK010418C]
viability at 28.5 h, 10 µM (% viability): 97.7%

CCC(Cc1c[nH]c2ccccc12)NC(=N)N (stereo not shown) [CBK010430]
viability at 28.5 h, 10 µM (% viability): 102%

COc1ccc(NS(=O)(=O)c2ccc(C)cc2)cn1 [CBK010484]
viability at 28.5 h, 10 µM (% viability): 85.8%

COC(=O)C(C)CSc1ccc(C(C)(C)C)cc1 (stereo not shown) [CBK010499]
viability at 28.5 h, 10 µM (% viability): 107%

CC(C)(O)Cc1ccccc1C(=O)NC1CCCCCC1 [CBK010502]
viability at 28.5 h, 10 µM (% viability): 81.7%

CN(C)[C@H]1CCCC[C@@H]1n1c(-c2ccc(Cl)c(Cl)c2)n[nH]c1=O [CBK010566]
viability at 28.5 h, 10 µM (% viability): 114%

O=c1[nH]nc2n1-c1ccccc1OC2 [CBK010583]
viability at 28.5 h, 10 µM (% viability): 104%

CNC(=O)Oc1cc(C)c(SC)c(C)c1 [CBK010586]
viability at 28.5 h, 10 µM (% viability): 77.2%

O=C(c1ccccn1)c1ccccn1 [CBK010601]
viability at 28.5 h, 10 µM (% viability): 89%

COc1ccc(C2Sc3ccccc3N(CCN(C)C)C(=O)C2OC(C)=O)cc1 (stereo not shown) [CBK010647]
viability at 28.5 h, 10 µM (% viability): 98%

NC(=O)CSc1ccccc1 [CBK010649]
viability at 28.5 h, 10 µM (% viability): 91.2%

CCC(=O)NC1Cc2cccc3c2N(CCC3)C1=O (stereo not shown) [CBK010667]
viability at 28.5 h, 10 µM (% viability): 113%

NS(=O)(=O)c1cccc2c1CC1(CC2)OCCO1 [CBK010703]
viability at 28.5 h, 10 µM (% viability): 84.6%

O=C1OCC(O)=C1C(c1ccccc1)C1CC1 (stereo not shown) [CBK010731]
viability at 28.5 h, 10 µM (% viability): 91%

Cc1ncc(C(O)c2ccc(Cl)cc2)c2c1OC(C)(C)OC2 (stereo not shown) [CBK010749]
viability at 28.5 h, 10 µM (% viability): 111%

O=C(c1ccco1)c1cnc2ccccn2c1=O [CBK010791]
viability at 28.5 h, 10 µM (% viability): 109%

Cc1nn(Cc2nnc(-c3cccs3)o2)c(C)c1Br [CBK010809]
viability at 28.5 h, 10 µM (% viability): 87.7%

COC(=O)C1C2CCN(CC2)C1SCc1cccc(C(F)(F)F)c1 (stereo not shown) [CBK010829C]
viability at 28.5 h, 10 µM (% viability): 87.1%

CCC(=O)Oc1ccc(/N=C2/NC(C)(C)O2)cc1 [CBK010922]
viability at 28.5 h, 10 µM (% viability): 87.6%

N/C(CS(=O)(=O)Cc1ccc(F)cc1)=N/O [CBK010956]
viability at 28.5 h, 10 µM (% viability): 89.2%

CCCc1cc(=O)n2c(n1)SCOC2 [CBK010967]
viability at 28.5 h, 10 µM (% viability): 108%

COC(=O)C1CC(O)CC1C(=O)N1CCCC1 (stereo not shown) [CBK011029]
viability at 28.5 h, 10 µM (% viability): 89.6%

Nc1nonc1OCC(COc1nonc1N)(COc1nonc1N)COc1nonc1N [CBK011044]
viability at 28.5 h, 10 µM: 85.6%

COc1ccc(-c2c[n+]3ccccc3c(=O)[nH]2)cc1 [CBK011078B]
viability at 28.5 h, 10 µM (% viability): 93.8%
